Earlier results, collected in US7645462B2, “Acupoint patch” (3T Herbtech, Inc., priority 2002, dated 2010).

Legend:
[1] = tested on: arteria femoralis blood circulation; conditions: intravenous 50 mg/kg, sedated animals
[2] = tested on: separated major arteries

SMILES	arteria femoralis blood circulation [1]	external blood vessel resistance [1]	dilation of separated major arteries [2]
COc1cc(/C=C/C(=O)O)ccc1O.[Na] [ferulic acid sodium]	increased	reduced	–
COc1cc(/C=C/C(=O)O)ccc1O [ferulic acid]	–	–	can dilate
